Assay results as given in US10508120B2, “TYK2 inhibitors and uses thereof” (Nimbus Lakshmi, Inc., priority 2017, dated 2019).
Like-named read-outs stand apart in the source and are kept apart here.

Tests used:
Tyk2 kinase domain (DH1) = Tyk2 kinase domain (DH1) (Homo sapiens (Human), UniProt P29597); test: Tyk2 Radioactive Kinase Assay; format: biochemical; details: for inhibition at 10 µM: read-out: Tyk2 JH1% Inhibition @ 10 μM
Outline: (§1)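 Single-point screen: 10 μM test compound, radioactive kinase read-out, percent inhibition reported for each kinase domain.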

JAK2 kinase domain (JH1) = JAK2 kinase domain (JH1) (Homo sapiens (Human), UniProt O60674); test: JAK2 Radioactive Kinase Assay; format: biochemical; details: for inhibition at 10 µM: read-out: JAK2 JH1% Inhibition @ 10 μM
Outline: as §1

[1] = molecular target: human TYK2 (JH2domain-pseudokinase) (Homo sapiens (Human), UniProt P29597); test: TYK2 JH2 Domain Binding Assay (KINOMEscan)
Outline: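 Competition binding of a DNA-tagged fusion of human TYK2 JH2 pseudokinase (G556–D888) with NFkB DNA-binding domain, from HEK293 extracts (<0.1 nM final), against immobilised ligand beads; 1 h shaking at room temperature, 0.9% DMSO. Bound kinase quantified by qPCR.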

Sequence of JAK2 kinase domain (JH1) (O60674 849-1124): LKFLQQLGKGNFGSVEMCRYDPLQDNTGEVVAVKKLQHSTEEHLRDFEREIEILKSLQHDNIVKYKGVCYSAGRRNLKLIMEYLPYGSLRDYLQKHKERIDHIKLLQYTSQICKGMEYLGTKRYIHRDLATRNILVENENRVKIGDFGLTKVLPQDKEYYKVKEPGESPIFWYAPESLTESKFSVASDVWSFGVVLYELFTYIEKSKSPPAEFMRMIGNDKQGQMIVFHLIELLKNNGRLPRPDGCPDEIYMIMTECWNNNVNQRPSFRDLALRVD
Sequence of Tyk2 kinase domain (DH1) (P29597 897-1176): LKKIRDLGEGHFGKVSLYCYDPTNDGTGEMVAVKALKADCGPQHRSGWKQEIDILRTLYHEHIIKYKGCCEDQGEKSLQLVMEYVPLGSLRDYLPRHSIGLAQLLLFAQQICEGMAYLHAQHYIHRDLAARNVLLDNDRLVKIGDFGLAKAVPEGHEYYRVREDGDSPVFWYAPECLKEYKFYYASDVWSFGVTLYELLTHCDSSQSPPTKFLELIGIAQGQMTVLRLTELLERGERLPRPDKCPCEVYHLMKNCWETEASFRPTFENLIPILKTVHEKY
Sequence of human TYK2 (JH2domain-pseudokinase) (P29597 556-888): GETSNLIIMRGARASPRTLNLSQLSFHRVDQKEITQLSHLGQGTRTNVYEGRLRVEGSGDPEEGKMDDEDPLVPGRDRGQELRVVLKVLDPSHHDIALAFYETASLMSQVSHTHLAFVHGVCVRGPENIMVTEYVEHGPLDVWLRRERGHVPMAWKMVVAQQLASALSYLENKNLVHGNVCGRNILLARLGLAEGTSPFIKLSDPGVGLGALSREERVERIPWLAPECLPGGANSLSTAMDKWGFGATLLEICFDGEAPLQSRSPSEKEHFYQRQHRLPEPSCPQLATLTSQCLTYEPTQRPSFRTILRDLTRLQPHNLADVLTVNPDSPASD

SMILES | inhibition at 10 µM (Tyk2 kinase domain (DH1); 10 μM compound, 10 μM ATP) [%] | inhibition at 10 µM (JAK2 kinase domain (JH1); 10 μM compound, 10 μM ATP) [%] | Kd [1] [nM] | inhibition at 10 µM (Tyk2 kinase domain (DH1); compound at 10 μM, ATP 10 μM) [%] | inhibition at 10 µM (JAK2 kinase domain (JH1); compound at 10 μM, ATP 10 μM) [%] | Tyk2 JH1% Inhibition @ 10 μM (Tyk2 kinase domain (DH1); compound at 10 μM, ATP 10 μM) | JAK2 JH1% Inhibition @ 10 μM (JAK2 kinase domain (JH1); compound at 10 μM, ATP 10 μM)
CNc1cc(Nc2cc(Cl)cn(C3CCN(C)CC3)c2=O)nc2c(C(=O)N[C@@H]3CC[C@@H]3O)cnn12 [I-1007] | < 50 | < 50 | 0.2 to 1 | – | – | – | –
CNc1cc(Nc2cccn(-c3ncccc3F)c2=O)nc2c(C(=O)NCC(C)CO)cnn12 (stereo not drawn) [I-593, 5-((3′-fluoro-2-oxo-2H-[1,2′-b]pyridinyl-3-yl)amino)-N-(3-hydroxy-2-methylpropyl)-7-(methylamino)pyrazolo[1,5-a]pyrimidine-3-carboxamide] | – | – | < 0.2 | < 50 | < 50 | – | –
CNc1cc(Nc2cccc(N3CC4(CCO4)C3)n2)nc2c(C(=O)N[C@H]3CC[C@H]3O)cnn12 [I-872] | < 50 | < 50 | < 0.2 | – | – | – | –
CNc1cc(Nc2cccnc2O[C@H]2C[C@@H](OC)C2)nc2c(C(=O)NC3CC3)cnn12 [I-184] | – | – | 0.2 to 1 | < 50 | < 50 | – | –
CNc1cc(Nc2cccn(-c3cc(C)nn3C)c2=O)nc2c(C(=O)NC3CC3)cnn12 [I-340] | – | – | 0.2 to 1 | < 50 | < 50 | – | –
CNc1cc(Nc2cccn([C@H]3CCC[C@@H](OC)C3)c2=O)nc2c(C(=O)N[C@@H]3CC[C@H]3OC)cnn12 [I-1126] | < 50 | < 50 | < 0.2 | – | – | – | –
CNc1cc(Nc2cccn(C(C)C)c2=O)nc2c(C(=O)N[C@@H]3CC[C@@H]3O)cnn12 [I-978] | < 50 | < 50 | 0.2 to 1 | – | – | – | –
[2H]C([2H])([2H])Oc1ncccc1Nc1cc(NC)n2ncc(C(=O)N[C@@H]3CC[C@@H](O)C3)c2n1 [I-501] | – | – | < 0.2 | < 50 | < 50 | – | –
CNc1cc(Nc2cccnc2O[C@H]2CC[C@H](O)CC2)nc2c(C(=O)N[C@H]3C[C@H]3F)cnn12 [I-239] | – | – | < 0.2 | < 50 | < 50 | – | –
CNc1cc(Nc2cccnc2OC2CC2)nc2c(C(=O)N[C@@H]3CCC[C@H]3O)cnn12 [I-465, 5-((2-cyclopropoxypyridin-3-yl)amino)-N-((1R,2R)-2-hydroxycyclopentyl)-7-(methylamino)pyrazolo[1,5-a]pyrimidine-3-carboxamide] | – | – | 0.2 to 1 | – | – | A (percent inhibition at 10 μM lower than 50) | A (percent inhibition at 10 μM lower than 50)
CNc1cc(Nc2cccn(C3CC4(COC4)C3)c2=O)nc2c(C(=O)N[C@@H]3CC[C@@H]3O)cnn12 [I-871] | < 50 | < 50 | 0.2 to 1 | – | – | – | –
CNc1cc(-c2cn(C3CCOCC3)c3ncccc23)nc2c(C(=O)N[C@H]3CC[C@H]3O)cnn12 [I-1113] | < 50 | < 50 | < 0.2 | – | – | – | –
CNc1cc(Nc2cccn([C@H]3CCCOC3)c2=O)nc2c(C(=O)NCC3(CO)CC3)cnn12 [I-699] | – | – | < 0.2 | < 50 | < 50 | – | –
CNc1cc(Nc2cccc(N3CC4(CCO4)C3)n2)nc2c(C(=O)NC3CC3)cnn12 [I-618] | – | – | < 0.2 | < 50 | < 50 | – | –
CNc1cc(Nc2cccn([C@H]3CCC[C@@H](OC)C3)c2=O)nc2c(C(=O)NCC3(CO)CC3)cnn12 [I-928] | < 50 | < 50 | 0.2 to 1 | – | – | – | –
CNc1cc(Nc2cccn([C@H]3C[C@@H]3F)c2=O)nc2c(C(=O)NCC(C)(C)CO)cnn12 [I-1060] | < 50 | < 50 | < 0.2 | – | – | – | –
CNc1cc(Nc2cccn([C@H]3CCCC[C@H]3OC)c2=O)nc2c(C(=O)N[C@@H]3C[C@@H]3F)cnn12 [I-1045] | < 50 | < 50 | 0.2 to 1 | – | – | – | –
CNc1cc(-c2cn(CCN3CCOCC3)c3ncccc23)nc2c(C(=O)NCC(C)(C)CO)cnn12 [I-818, N-(3-hydroxy-2,2-dimethylpropyl)-7-(methylamino)-5-(1-(2-morpholinoethyl)-1H-pyrrolo[2,3-b]pyridin-3-yl)pyrazolo[1,5-a]pyrimidine-3-carboxamide] | < 50 | < 50 | 0.2 to 1 | – | – | – | –
CNc1cc(Nc2cc(Cl)cn(-c3cnn(C4CC4)c3C)c2=O)nc2c(C(N)=O)cnn12 [I-180] | – | – | < 0.2 | < 50 | < 50 | – | –
CNc1cc(Nc2cccnc2O[C@H]2C[C@@H](OC)C2)nc2c(C(=O)N[C@H]3C[C@H]3F)cnn12 [I-186] | – | – | < 0.2 | < 50 | < 50 | – | –

SMILES | inhibition at 10 µM (Tyk2 kinase domain (DH1); 10 μM compound, 10 μM ATP) [%] | inhibition at 10 µM (JAK2 kinase domain (JH1); 10 μM compound, 10 μM ATP) [%] | Kd [1] [nM] | inhibition at 10 µM (Tyk2 kinase domain (DH1); compound at 10 μM, ATP 10 μM) [%] | inhibition at 10 µM (JAK2 kinase domain (JH1); compound at 10 μM, ATP 10 μM) [%] | Tyk2 JH1% Inhibition @ 10 μM (Tyk2 kinase domain (DH1); compound at 10 μM, ATP 10 μM) | JAK2 JH1% Inhibition @ 10 μM (JAK2 kinase domain (JH1); compound at 10 μM, ATP 10 μM)
CNc1cc(Nc2cccn([C@H]3CC[C@H](O)CC3)c2=O)nc2c(C(N)=O)cnn12 [I-59] | – | – | < 0.2 | < 50 | < 50 | – | –
CNc1cc(-c2nn(C(C)C)c3ncccc23)nc2c(C(=O)N[C@H]3C[C@H]3F)cnn12 [I-451] | – | – | < 0.2 | < 50 | < 50 | – | –
CNc1cc(Nc2cc(C)nc(N3CCCC3)c2)nc2c(C(N)=O)cnn12 [I-27] | – | – | 1 to 10 | < 50 | < 50 | – | –
CNc1cc(Nc2cccn([C@H]3CC[C@@H](N4CCOCC4)CC3)c2=O)nc2c(C(=O)N[C@H]3C[C@H]3F)cnn12 [I-304] | – | – | < 0.2 | < 50 | < 50 | – | –
CNc1cc(-c2cn(C(C)C)c3ncc(C)cc23)nc2c(C(=O)NC3CCC3)cnn12 [I-256] | – | – | 0.2 to 1 | < 50 | < 50 | – | –
CNc1cc(-c2cn(CCN3CCN(C)CC3)c3ncccc23)nc2c(C(=O)N[C@H]3CC[C@H]3O)cnn12 (stereo in doubt) [I-851, N-(2-hydroxycyclobutyl)-7-(methylamino)-5-(1-(2-(4-methylpiperazin-1-yl)ethyl)-1H-pyrrolo[2,3-b]pyridin-3-yl)pyrazolo[1,5-a]pyrimidine-3-carboxamide] | < 50 | < 50 | < 0.2 | – | – | – | –
CNc1cc(Nc2cccn([C@@H]3C[C@H]3F)c2=O)nc2c(C(=O)N[C@@H]3CC[C@H]3O)cnn12 [I-1091] | < 50 | < 50 | < 0.2 | – | – | – | –
CNc1cc(Nc2cccn(-c3nc(C)co3)c2=O)nc2c(C(=O)N[C@@H]3CC[C@@H]3O)cnn12 [I-654] | – | – | < 0.2 | < 50 | < 50 | – | –
CNc1cc(Nc2cccn([C@H]3CC[C@@]4(CCCO4)CC3)c2=O)nc2c(C(=O)NC3CC3)cnn12 [I-910] | < 50 | < 50 | < 0.2 | – | – | – | –
CNc1cc(Nc2cc(Cl)cn([C@@H]3CCCN(C)C3)c2=O)nc2c(C(=O)N[C@@H]3C[C@@H]3F)cnn12 [I-853] | < 50 | < 50 | < 0.2 | – | – | – | –
CCCCn1cc(-c2cc(NC)n3ncc(C(=O)N[C@@H]4C[C@@H]4F)c3n2)c2cccnc21 [I-478, 5-(1-butyl-1H-pyrrolo[2,3-b]pyridine-3-yl)-N-((1R,2S)-2-fluorocyclopropyl)-7-(methylamino)pyrazolo[1,5-a]pyrimidine-3-carboxamide] | – | – | 0.2 to 1 | < 50 | < 50 | – | –
CNc1cc(Nc2cccn([C@H]3CCC[C@@H](OC)C3)c2=O)nc2c(C(=O)NCC(C)(C)CO)cnn12 [I-950] | < 50 | < 50 | 0.2 to 1 | – | – | – | –
CNc1cc(Nc2cccc(C3CCCCO3)n2)nc2c(C(=O)NC3CC3)cnn12 (stereo in doubt) [I-463, (R)—N-cyclopropyl-7-(methylamino)-5-((6-(tetrahydro-2H-pyran-2-yl)pyridin-2-yl)amino) pyrazolo[1,5-a]pyrimidine-3-carboxamide] | – | – | 0.2 to 1 | < 50 | 50 to 70 | – | –
CNc1cc(-c2cnn(-c3ccccc3)c2)nc2c(C(N)=O)cnn12 [I-44] | – | – | 0.2 to 1 | < 50 | < 50 | – | –
CNc1cc(-n2cc(N3CCOCC3)c3ncccc32)nc2c(C(=O)N[C@H]3C[C@H]3F)cnn12 [I-555] | – | – | 1 to 10 | < 50 | < 50 | – | –
CNc1cc(Nc2cccn([C@@H]3CCOC3)c2=O)nc2c(C(N)=O)cnn12 [I-195] | – | – | 0.2 to 1 | < 50 | < 50 | – | –
CNc1cc(Nc2cccn([C@@H]3CCC[C@@H](OC)C3)c2=O)nc2c(C(=O)NCC3(CO)CC3)cnn12 [I-1087] | < 50 | < 50 | < 0.2 | – | – | – | –
[2H]C([2H])([2H])Oc1ncccc1Nc1cc(NC)n2ncc(C(=O)N[C@@H]3CC[C@@H]3O)c2n1 (stereo in doubt) [I-400, N-((1R,2S)-2-hydroxycyclobutyl)-5-((2-(methoxy-d3)pyridin-3-yl)amino)-7-(methylamino) pyrazolo[1,5-a]pyrimidine-3-carboxamide] | – | – | 0.2 to 1 | < 50 | < 50 | – | –
CNc1cc(Nc2ccnn(-c3ccc(F)cc3)c2=O)nc2c(C(N)=O)cnn12 [I-69] | – | – | 0.2 to 1 | < 50 | < 50 | – | –
CNc1cc(Nc2cccn([C@H]3CCN(C)C[C@@H]3F)c2=O)nc2c(C(=O)NC3CC3)cnn12 [I-608] | – | – | < 0.2 | < 50 | < 50 | – | –
